Assay [1] has as its target T1, human adenosine A1 receptor (Homo sapiens, UniProt P30542).
T1 sequence (P30542 1-326): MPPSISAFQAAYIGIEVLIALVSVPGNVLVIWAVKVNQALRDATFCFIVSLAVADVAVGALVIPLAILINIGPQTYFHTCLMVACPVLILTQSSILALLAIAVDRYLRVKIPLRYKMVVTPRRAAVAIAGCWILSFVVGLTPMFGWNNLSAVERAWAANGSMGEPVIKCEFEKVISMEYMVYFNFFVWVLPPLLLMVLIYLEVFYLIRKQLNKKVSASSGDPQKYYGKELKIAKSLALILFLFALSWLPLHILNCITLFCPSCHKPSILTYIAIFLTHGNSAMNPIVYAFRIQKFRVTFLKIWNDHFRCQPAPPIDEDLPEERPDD
The assay is described as follows: Two‐state competition association assay with [^3H]‐NECA. The assay is classed as binding.

In assay [2] the target is T1, human adenosine A1 receptor. Kind of assay: Competition binding assay: displacement of [^3H]‐NECA on CHOhA1R cell membranes.
The test system of another assay is A1 receptor. The conditions noted are these: 25°C; ref Guo et al., 2013; cited from earlier work.

`c1ccc(-c2nc(-c3ccccc3)c3nc(C4CCCC4)[nH]c3n2)cc1` [LUF5962, 8‐cyclopentyl‐2,6‐diphenyl‐9H‐purine] gave a Kb in assay [1] (KB,2, KB,2 = k8/k7, R2 state, 30°C, DPCPX and LUF5962 values ambiguous) of 15 nM. Moreover, in assay [1] (read-out: k5 (association rate constant of competitor at R1 state)), the kon was 167000 M⁻¹ s⁻¹. Besides, the koff in assay [1] (read-out: k6 (dissociation rate constant of competitor at R1 state)) was 0.00383 s⁻¹. Further, in assay [2], the IC50 is 74.1 nM. The association rate in the assay with A1 receptor was 2e+06 M⁻¹ s⁻¹.

Take `CCCn1c(=O)c2[nH]c(C3CCCC3)nc2n(CCC)c1=O` [DPCPX, 1,3‐dipropyl‐8‐cyclopentylxanthine]: in assay [1] (two‐state model, 30°C, mean ± SEM of five experiments), the “k6 (dissociation rate constant of competitor at R1 state)” value was determined as 0.78 ± 1.42 min⁻¹. Moreover, in the assay with A1 receptor, the association rate is 3.33e+06 M⁻¹ s⁻¹.

(Values after article PMC5913406 (British Journal of Pharmacology, 2018).)
